Reference: ChEMBL document CHEMBL2380208, “Novel quinoline derivatives as inhibitors of bacterial DNA gyrase and topoisomerase IV” (Bioorg Med Chem Lett, 2013)
In brackets after ≈: the same amount, converted by molar mass.

Key:
Staphylococcus aureus [1] = assay: Antibacterial activity against fluoroquinolone-resistant Staphylococcus aureus 1095; format: functional
Staphylococcus aureus [2] = assay: Antibacterial activity against Staphylococcus aureus; format: functional
[3] = Clearance in rat at 2 mg/kg, iv and 5 mg/kg, po; format: ADME, organism-based; conditions: in vivo
[4] = Volume of distribution at steady state in rat at 2 mg/kg, iv and 5 mg/kg, po; format: ADME, organism-based; conditions: in vivo, read-out: Vdss
[5] = Inhibition of Staphylococcus aureus DNA topoisomerase 4
Staphylococcus aureus [6] = assay: Antibacterial activity against fluoroquinolone-resistant Staphylococcus aureus harboring DNA gyrase D83N mutant; format: functional
DNA gyrase = DNA gyrase (Staphylococcus aureus, UniProt P0A0K8+P20831); assay: Inhibition of Staphylococcus aureus DNA gyrase; format: protein-complex assay
Staphylococcus aureus [7] = assay: Antibacterial activity against Staphylococcus aureus 1146; format: functional
[8] = Inhibition of human DNA topoisomerase 4
Streptococcus pyogenes [9] = assay: Antibacterial activity against Streptococcus pyogenes; format: functional
Staphylococcus aureus [10] = assay: Antibacterial activity against fluoroquinolone-resistant Staphylococcus aureus 1095 infected in mouse assessed as survival compound administered 0.5 to 4 hrs post-infection measured after 7 days; format: functional; conditions: read-out: PD50
Staphylococcus aureus [11] = assay: Antibacterial activity against fluoroquinolone-resistant Staphylococcus aureus harboring DNA gyrase M121K mutant; format: functional
[12] = target: Voltage-gated inwardly rectifying potassium channel KCNH2 (Homo sapiens, UniProt Q12809); assay: Inhibition of human ERG channel in HEK293 cells by voltage-gated patch clamp technique; format: cell-based
[13] = Oral bioavailability in rat at 5 mg/kg; format: ADME, organism-based; conditions: in vivo
[14] = Inhibition of Streptococcus pneumoniae DNA gyrase
[15] = Inhibition of Streptococcus pneumoniae topoisomerase 4
DNA gyrase subunit A [16] = target: DNA gyrase subunit A (Staphylococcus aureus, UniProt P20831, M121K); assay: Inhibition of Staphylococcus aureus DNA gyrase M121K mutant
DNA gyrase subunit A [17] = target: DNA gyrase subunit A (Staphylococcus aureus, UniProt P20831, D83N); assay: Inhibition of Staphylococcus aureus DNA gyrase D83N mutant
Streptococcus pyogenes [18] = assay: Antibacterial activity against Streptococcus pyogenes 02C0203 infected in mouse assessed as survival compound administered 0.5 to 4 hrs post-infection measured after 7 days; conditions: 02C0203, in Mus musculus, read-out: PD50

Chain of Voltage-gated inwardly rectifying potassium channel KCNH2 (Q12809 whole entry): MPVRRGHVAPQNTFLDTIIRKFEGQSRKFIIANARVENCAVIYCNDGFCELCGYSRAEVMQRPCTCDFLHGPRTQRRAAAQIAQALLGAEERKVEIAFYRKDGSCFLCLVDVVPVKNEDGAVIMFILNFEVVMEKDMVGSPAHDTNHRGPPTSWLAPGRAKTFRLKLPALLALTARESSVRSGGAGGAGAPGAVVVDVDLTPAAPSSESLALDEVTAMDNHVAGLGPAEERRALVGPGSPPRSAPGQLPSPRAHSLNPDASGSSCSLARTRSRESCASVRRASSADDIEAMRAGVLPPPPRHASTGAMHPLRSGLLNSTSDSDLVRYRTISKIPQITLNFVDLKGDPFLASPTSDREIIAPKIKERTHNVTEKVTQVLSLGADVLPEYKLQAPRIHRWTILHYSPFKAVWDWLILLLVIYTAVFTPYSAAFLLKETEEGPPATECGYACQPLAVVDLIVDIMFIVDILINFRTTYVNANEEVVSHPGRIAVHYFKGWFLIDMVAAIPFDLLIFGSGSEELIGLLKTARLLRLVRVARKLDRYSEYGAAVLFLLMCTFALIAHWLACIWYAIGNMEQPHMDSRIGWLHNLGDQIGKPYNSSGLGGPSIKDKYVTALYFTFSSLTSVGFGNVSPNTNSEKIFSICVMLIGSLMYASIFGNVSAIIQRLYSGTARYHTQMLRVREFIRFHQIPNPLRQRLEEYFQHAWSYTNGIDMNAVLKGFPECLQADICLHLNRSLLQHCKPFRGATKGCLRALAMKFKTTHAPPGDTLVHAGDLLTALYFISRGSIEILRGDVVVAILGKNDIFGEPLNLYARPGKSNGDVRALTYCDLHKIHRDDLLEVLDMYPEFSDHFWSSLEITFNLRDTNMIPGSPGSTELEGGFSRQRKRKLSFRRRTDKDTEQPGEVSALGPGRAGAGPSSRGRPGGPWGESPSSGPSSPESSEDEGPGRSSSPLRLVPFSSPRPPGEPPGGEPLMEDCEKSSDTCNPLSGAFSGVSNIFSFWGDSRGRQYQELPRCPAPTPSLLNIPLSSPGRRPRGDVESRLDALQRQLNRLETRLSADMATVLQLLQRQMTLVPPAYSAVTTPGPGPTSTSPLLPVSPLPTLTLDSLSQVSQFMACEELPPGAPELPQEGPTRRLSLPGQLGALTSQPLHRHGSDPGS

SMILES	MIC (Staphylococcus aureus [1]) [µg/mL]	MIC90 (Staphylococcus aureus [2]) [µg/mL]	clearance [3] [mL/min/kg]	Vd [4] [L/kg]	IC50 [5] [µM]	MIC (Staphylococcus aureus [6]) [µg/mL]	IC50 (DNA gyrase) [µM]	MIC (Staphylococcus aureus [7]) [µg/mL]	IC50 [8] [µM]	MIC90 (Streptococcus pyogenes [9]) [µg/mL]	ED50 (Staphylococcus aureus [10]) [mg/kg]	MIC (Staphylococcus aureus [11]) [µg/mL]	IC50 [12] [µM]	bioavailability [13] [%]	IC50 [14] [µM]	IC50 [15] [µM]	IC50 (DNA gyrase subunit A [16]) [µM]	IC50 (DNA gyrase subunit A [17]) [µM]	ED50 (Streptococcus pyogenes [18]) [mg/kg]
COc1ccc2ncc(F)c([C@@H](O)CC[C@@H]3CCN(CCSc4cccs4)C[C@@H]3C(=O)O)c2c1	0.125 (≈ 0.248 µM)	0.125 (≈ 0.248 µM)	32.7	2.55	30.4	32 (≈ 63.4 µM)	1.56	≤ 0.063	> 200	0.25 (≈ 0.495 µM)	22.1	64 (≈ 127 µM)	23.6	31.5	–	–	–	–	–
COc1ccc2nccc([C@@H](O)CC[C@@H]3CCN(CCSc4cccs4)C[C@@H]3C(=O)O)c2c1	0.1 (≈ 0.205 µM)	–	–	–	84.6	> 64	2.42	0.068 (≈ 0.14 µM)	> 200	–	34.7	> 64	–	–	5.85	6.54	–	–	–
COc1ccc2nccc(C(O)CC[C@@H]3CCN(C/C=C/c4cc(F)ccc4F)C[C@@H]3C(=O)O)c2c1 (stereo partly drawn)	0.5 (≈ 1.01 µM)	–	–	–	8.84	10 (≈ 20.1 µM)	7.66	0.25 (≈ 0.503 µM)	100	–	–	13 (≈ 26.2 µM)	–	–	6.25	3.75	–	–	–
COc1ccc2nccc([C@@H](O)CC[C@@H]3CCN(C4CC(c5ccccc5)C4)C[C@@H]3C(=O)O)c2c1 (stereo partly drawn)	0.2 (≈ 0.421 µM)	0.25 (≈ 0.527 µM)	43.1	1.24	32.1	≥ 32	1.19	0.09 (≈ 0.19 µM)	> 200	1 (≈ 2.11 µM)	6.9	≥ 64	24.9	27	8.84	8.37	> 200	> 200	14.1
COc1ccc2nccc([C@H](O)CC[C@@H]3CCN(C4CC(c5ccccc5)C4)C[C@@H]3C(=O)O)c2c1 (stereo partly drawn)	–	–	–	–	–	–	–	0.23 (≈ 0.485 µM)	> 200	–	–	–	–	–	21.7	30	–	–	–
COc1ccc2nccc([C@@H](O)CC[C@@H]3CCN(C4CC(c5ccccc5F)C4)C[C@@H]3C(=O)O)c2c1 (stereo partly drawn)	≤ 0.0625	–	–	–	37	64 (≈ 130 µM)	12.5	≤ 0.0625	–	–	–	> 64	–	–	–	–	–	–	–
COc1ccc2nccc([C@@H](O)CC[C@@H]3CCN(C4CC(c5cccc(F)c5)C4)C[C@@H]3C(=O)O)c2c1 (stereo partly drawn)	0.125 (≈ 0.254 µM)	–	–	–	38	32 (≈ 65 µM)	1.56	≤ 0.0625	–	–	–	32 (≈ 65 µM)	–	–	–	–	–	–	–
COc1ccc2nccc([C@@H](O)CC[C@@H]3CCN(C4CC(c5c(F)cccc5F)C4)C[C@@H]3C(=O)O)c2c1 (stereo partly drawn)	0.25 (≈ 0.49 µM)	0.25 (≈ 0.49 µM)	39.7	3	> 100	32 (≈ 62.7 µM)	2.93	0.125 (≈ 0.245 µM)	–	1 (≈ 1.96 µM)	16.3	23 (≈ 45 µM)	–	–	–	–	–	–	22
COc1ccc2nccc([C@@H](O)CC[C@@H]3CCN(C4CC(c5cc(F)ccc5F)C4)C[C@@H]3C(=O)O)c2c1 (stereo partly drawn)	0.5 (≈ 0.979 µM)	0.25 (≈ 0.49 µM)	43.9	1.3	9.62	10 (≈ 19.6 µM)	3	0.25 (≈ 0.49 µM)	–	1 (≈ 1.96 µM)	28.2	5.7 (≈ 11.2 µM)	9.97	47	–	–	–	–	32.5
COc1ccc2nccc([C@@H](O)CC[C@@H]3CCN(C4CC(c5ccc(F)cc5F)C4)C[C@@H]3C(=O)O)c2c1 (stereo partly drawn)	0.25 (≈ 0.49 µM)	–	–	–	60	64 (≈ 125 µM)	9.4	≤ 0.0625	–	–	–	64 (≈ 125 µM)	–	–	–	–	–	–	–
COc1ccc2nccc([C@@H](O)CC[C@@H]3CCN(C4CC(c5c(F)ccc(F)c5F)C4)C[C@@H]3C(=O)O)c2c1 (stereo partly drawn)	≤ 0.0625	–	–	–	35.6	8 (≈ 15.1 µM)	1.56	≤ 0.0625	–	–	–	16 (≈ 30.3 µM)	–	–	–	–	–	–	–
COc1ccc2nccc([C@@H](O)CC[C@@H]3CCN(C4CC(c5ccc(F)c(F)c5F)C4)C[C@@H]3C(=O)O)c2c1 (stereo partly drawn)	0.5 (≈ 0.946 µM)	–	–	–	110	> 64	3.13	≤ 0.0625	–	–	–	> 64	–	–	–	–	–	–	–
COc1ccc2nccc([C@@H](O)CC[C@@H]3CCN(C4CC(c5cc(F)cc(F)c5)C4)C[C@@H]3C(=O)O)c2c1 (stereo partly drawn)	0.25 (≈ 0.49 µM)	–	–	–	15	8 (≈ 15.7 µM)	1.56	≤ 0.0625	–	–	–	8 (≈ 15.7 µM)	7.18	–	–	–	–	–	–
COc1ccc2nccc([C@@H](O)CC[C@@H]3CCN(C4CC(c5cc(F)c(Cl)cc5F)C4)C[C@@H]3C(=O)O)c2c1 (stereo partly drawn)	1 (≈ 1.83 µM)	–	–	–	120	> 64	4.7	0.25 (≈ 0.459 µM)	–	–	–	> 64	–	–	–	–	–	–	–
COc1ccc2nccc([C@@H](O)CC[C@@H]3CCN(C4CC(c5cc(F)cc(F)c5F)C4)C[C@@H]3C(=O)O)c2c1 (stereo partly drawn)	0.125 (≈ 0.236 µM)	–	–	–	8.4	8 (≈ 15.1 µM)	1.56	≤ 0.0625	–	–	–	8 (≈ 15.1 µM)	30.9	–	–	–	–	–	–
COc1ccc2nccc(C(O)CC[C@@H]3CCN(C[C@@H]4C[C@H]4c4ccccc4)C[C@@H]3C(=O)O)c2c1 (mixture of isomers)	–	–	–	–	–	–	–	1	150	–	–	–	–	–	50	7.5	–	–	–
O=C(O)c1cn(C2CC2)c2cc(N3CCNCC3)c(F)cc2c1=O [CIPROFLOXACIN]	–	> 64	–	–	–	–	–	–	–	0.5 (≈ 1.51 µM)	–	–	–	–	–	–	–	–	–
